Patent publication US8178534B2, “cMET inhibitors” (Takeda Pharmaceutical Company Limited, priority 2008, dated 2012)
Structures can show the parent of a compound that is named as a salt.

Columns and labels:
[1] = target: T1, cMET enzyme (amino acids 1023-1360) (Homo sapiens, UniProt P08581); assay: Determination of inhibition of cMET (capillary electrophoresis, phosphorylated peptide product); format: biochemical; settings: 1.2 nM cMET, 50 μM ATP, 2 μM FL-2 peptide, 2 hours room temperature
T1 construct: The cMET enzyme (amino acids 1023-1360) nominally at 24 μM was held at −80° C. until use; His tag (N, cleaved yes); made in house; host or cells: Sf9 cells

MKN45 = assay: Inhibition of cell viability (MTS), MKN45; format: cell-based; settings: MKN45 cells, 96 hours incubation
Procedure, shortened: (§1)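 Cells seeded at 2,000-7,500/well, attached ~24 h, then treated in duplicate with 1:2.5 serial dilutions at 0.5% final DMSO. Viability by MTS; EC50 from non-linear fit after background correction and normalisation to DMSO. MKN45 and EBC1 are cMET-dependent; A549 serves as negative control.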

EBC1 = assay: Inhibition of cell viability (MTS), EBC1; format: cell-based; settings: EBC1 cells, 96 hours incubation
Procedure, shortened: as §1

A549 = assay: Inhibition of cell viability (MTS), A549 (negative control line); format: cell-based; settings: A549 cells (negative control), 96 hours incubation
Procedure, shortened: as §1

T1 sequence (P08581 1023-1360): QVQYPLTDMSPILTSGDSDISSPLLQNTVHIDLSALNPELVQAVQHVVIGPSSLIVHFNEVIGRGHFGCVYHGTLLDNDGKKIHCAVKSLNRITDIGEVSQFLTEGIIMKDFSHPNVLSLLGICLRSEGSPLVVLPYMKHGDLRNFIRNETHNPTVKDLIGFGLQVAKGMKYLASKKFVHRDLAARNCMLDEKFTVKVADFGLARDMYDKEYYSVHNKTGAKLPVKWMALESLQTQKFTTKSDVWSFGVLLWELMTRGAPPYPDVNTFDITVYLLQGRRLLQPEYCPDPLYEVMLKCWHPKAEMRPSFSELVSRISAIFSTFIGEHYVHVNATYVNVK

IC50 [1]	EC50 (MKN45)	EC50 (A549)	melting point	EC50 (MKN45; Homo sapiens, MKN-45, 96 h)	EC50 (A549; Homo sapiens, A549, 96 h)	SMILES	EC50 (EBC1)	EC50 (EBC1; Homo sapiens, EBC-1, 96 h)
			182 to 184 °C			O=C(Nc1cn2nc(Sc3nnc4ccc(-c5cnn(CCO)c5)cn34)ccc2n1)C1CC1 (as salt: HCl) [Compound 32]		
< 30 nM				< 30 nM	> 50 µM	Cc1cc(F)cc(-c2ccc3nnc(C(F)(F)c4ccc5nc(NC(=O)C6CC6)cn5n4)n3c2)c1 [Compound 97, N-(6-(difluoro(6-(3-fluoro-5-methylphenyl)-[1,2,4]triazolo[4,3-a]pyridin-3-yl)methyl)imidazo[1,2-b]pyridazin-2-yl)cyclopropanecarboxamide]		< 30 nM

The remaining lines, values behind:

SMILES	IC50 [1]	EC50 (MKN45)	EC50 (A549)	melting point	EC50 (MKN45; Homo sapiens, MKN-45, 96 h)	EC50 (A549; Homo sapiens, A549, 96 h)	EC50 (EBC1)	EC50 (EBC1; Homo sapiens, EBC-1, 96 h)
Cn1cc(-c2ccc3nnn(Cc4ccc5nc(NC(=O)C6CC6)cn5n4)c3c2)cn1 [13 (free base), N-(6-((6-(1-methyl-1H-pyrazol-4-yl)-1H-benzo[d][1,2,3]triazol-1-yl)methyl)imidazo[1,2-b]pyridazin-2-yl)cyclopropanecarboxamide]	30 to 59 nM	< 30 nM	> 50 µM	250.2 to 251.6 °C			< 30 nM	
CS(=O)(=O)c1ccc(-c2ccc3nnn(Cc4ccc5nc(NC(=O)C6CC6)cn5n4)c3c2)cc1 [Compound 17]	60 to 100 nM				< 100 nM	> 19.5 µM		< 35 nM
COc1ccc(-c2ccc3nnc(C(C)c4ccc5nc(NC(=O)C6CC6)cn5n4)n3c2)cc1C (stereo not drawn) [Compound 70, N-(6-(1-(6-(4-methoxy-3-methylphenyl)-[1,2,4]triazolo[4,3-a]pyridin-3-yl)ethyl)imidazo[1,2-b]pyridazin-2-yl)cyclopropanecarboxamide]	< 30 nM				< 30 nM	> 50 µM		< 30 nM
